Data reported in ChEMBL document CHEMBL3779781, “New direct inhibitors of InhA with antimycobacterial activity based on a tetrahydropyran scaffold” (Eur J Med Chem, 2016).

Experiments:
[1] = test system: Mycobacterium tuberculosis; assay: Antimycobacterial activity against isoniazid resistant Mycobacterium tuberculosis H37Rv clinical isolate 1 harboring katG S315T mutant; type: functional, H37Rv isolate 1
[2] = test system: Mycobacterium tuberculosis; assay: Ratio of MIC for isoniazid resistant Mycobacterium tuberculosis H37Rv clinical isolate 4 harboring katG S315T mutant to MIC for Mycobacterium tuberculosis H37Rv; type: functional
[3] = test system: Mycobacterium tuberculosis; assay: Ratio of MIC for isoniazid resistant Mycobacterium tuberculosis H37Rv clinical isolate 5 harboring katG S315T mutant to MIC for Mycobacterium tuberculosis H37Rv; type: functional
[4] = test system: Mycobacterium tuberculosis; assay: Ratio of MIC for isoniazid resistant Mycobacterium tuberculosis H37Rv clinical isolate 3 harboring InhA promoter C-15T mutant to MIC for Mycobacterium tuberculosis H37Rv; type: functional
[5] = test system: Mycobacterium tuberculosis; assay: Ratio of MIC for isoniazid resistant Mycobacterium tuberculosis H37Rv clinical isolate 2 harboring InhA promoter C-15T mutant to MIC for Mycobacterium tuberculosis H37Rv; type: functional
[6] = test system: Mycobacterium tuberculosis; assay: Antimycobacterial activity against isoniazid resistant Mycobacterium tuberculosis H37Rv clinical isolate 5 harboring katG S315T mutant; type: functional, H37Rv isolate 5
[7] = test system: Mycobacterium tuberculosis; assay: Ratio of MIC for isoniazid resistant Mycobacterium tuberculosis H37Rv clinical isolate 6 harboring InhA promoter C-15T mutant to MIC for Mycobacterium tuberculosis H37Rv; type: functional
[8] = test system: Mycobacterium tuberculosis; assay: Antimycobacterial activity against isoniazid resistant Mycobacterium tuberculosis H37Rv clinical isolate 6 harboring InhA promoter C-15T mutant; type: functional, H37Rv isolate 6
[9] = test system: Mycobacterium tuberculosis; assay: Ratio of MIC for isoniazid resistant Mycobacterium tuberculosis H37Rv clinical isolate 1 harboring katG S315T mutant to MIC for Mycobacterium tuberculosis H37Rv; type: functional
[10] = test system: Mycobacterium tuberculosis; assay: Antimycobacterial activity against isoniazid resistant Mycobacterium tuberculosis H37Rv clinical isolate 3 harboring InhA promoter C-15T mutant; type: functional, H37Rv isolate 3
[11] = test system: Mycobacterium tuberculosis; assay: Ratio of MIC for isoniazid resistant Mycobacterium tuberculosis H37Rv clinical isolate 7 harboring katG S315T mutant to MIC for Mycobacterium tuberculosis H37Rv; type: functional
[12] = test system: Mycobacterium tuberculosis; assay: Antimycobacterial activity against isoniazid resistant Mycobacterium tuberculosis H37Rv clinical isolate 4 harboring katG S315T mutant; type: functional, H37Rv isolate 4
[13] = test system: Mycobacterium tuberculosis; assay: Antimycobacterial activity against isoniazid resistant Mycobacterium tuberculosis H37Rv clinical isolate 2 harboring InhA promoter C-15T mutant; type: functional, H37Rv isolate 2
[14] = test system: Mycobacterium tuberculosis; assay: Antimycobacterial activity against isoniazid resistant Mycobacterium tuberculosis H37Rv clinical isolate 7 harboring katG S315T mutant; type: functional, H37Rv isolate 7

SMILES	MIC [1]	Ratio [2]	Ratio [3]	Ratio [4]	Ratio [5]	MIC [6]	Ratio [7]	MIC [8]	Ratio [9]	MIC [10]	Ratio [11]	MIC [12]	MIC [13]	MIC [14]
Cc1cc(C)n(Cc2ccc(C(=O)NCC3(c4nc(-c5ccccc5)cs4)CCOCC3)cc2)n1	15.6 µM	1	8	8	8	62.5 µM	8	62.5 µM	2	62.5 µM	2	7.8 µM	62.5 µM	15.6 µM
NNC(=O)c1ccncc1 [ISONIAZID]	50 µg/mL	50	25	3.1	6.25	12.5 µg/mL	3.1	1.56 µg/mL	100	1.56 µg/mL	400	25 µg/mL	3.1 µg/mL	200 µg/mL
